{"source": "patent US20110011310A1", "about": "“METHOD OF MANUFACTURING A COMPOSITE BASED ON COMPLEXES OF CONTROLLED STABILITY” (UNIVERSITE DE NICE SOPHIA-ANTIPOLIS, priority 2007, published 2011)", "experiment": "Thermogravimetry of the temperature of decomposition of indigo (FIGS. 3 and 6)", "assay_type": "physicochemical", "method": "[…] This peak is offset to around 540° C. when the mixture has been heated at 18 (unheated), 120, 180, 280 and 350° C. during production of the composite.\nIn addition, during the step of cleaning by heating at temperatures of 18 (unheated), 180, 280 and 320° C. for 20 minutes, a peak characteristic of the presence of indigo in the external medium is observed, as these molecules begin to decompose at 280° C. with a maximum rate at 340° C. This phenomenon is possible owing to surface interactions between the indigo and the sepiolite, which reduce the temperature of decomposition of the indigo, which in a pure product begins at 300° C. with a maximum at 390° C. However, this peak disappears after the cleaning by heating at 350° C. for 20 minutes. […] Also, at 520° C., a peak characteristic of the presence of indigo in the sepiolite tunnels is observed. This cleaning by heating step in this type of preparation enables only the molecules present in the tunnels to be preserved."}
{"smiles": "O=C1/C(=C2\\Nc3ccccc3C2=O)Nc2ccccc21", "note": "[indigo]", "values": [{"measurement": "temperature of maximum rate of decomposition of indigo", "setting": "indigo in the external medium of 23% indigo/sepiolite mixtures", "value": 340, "unit": "°C"}, {"measurement": "temperature at which decomposition of indigo begins", "setting": "indigo in the external medium of 23% indigo/sepiolite mixtures (surface interactions with sepiolite)", "value": 280, "unit": "°C"}, {"measurement": "temperature of the thermogravimetric peak of indigo", "setting": "indigo in the sepiolite tunnels of 23% indigo/sepiolite mixtures (FIG. 6)", "value": "around 520 °C"}, {"measurement": "maximum temperature of decomposition of indigo", "setting": "indigo incorporated in the sepiolite tunnels (FIG. 3)", "value": 540, "unit": "°C"}, {"measurement": "maximum temperature of decomposition of indigo", "setting": "native indigo (FIG. 3)", "value": "around 375 °C"}, {"measurement": "temperature at which decomposition of indigo begins", "setting": "pure product", "value": 300, "unit": "°C"}, {"measurement": "temperature of maximum decomposition of indigo", "setting": "pure product", "value": 390, "unit": "°C"}]}
